# Test system: ob/ob mice
# Experiment: Increase of circulating insulin concentrations in treated ob/ob mice
# Assay type: in vivo
# Settings: male ob/ob mice, dose 10 mg/kg p.o., 10 minutes after dosing, relative to control group
# Protocol: The results presented below exemplify that administration of the compounds as provided herein to an art-recognized animal model of human diabetes can lead to increased circulating insulin concentrations in the animal model.
# Male ob/ob mice were weighed and bled from tail vein, and blood glucose levels were determined with a glucometer. Animals were placed into control and treatment groups having similar averages of glucose levels and body weights. In the morning of the following day, animals were dosed with vehicle (control group) or test article (5 ml/kg, p.o.). Blood samples were collected just before and 10 minutes after dosing, and the samples were assayed for insulin and glucose concentrations.
# Table 1 provides exemplary data showing the increase of circulating insulin concentrations (expressed as ng/ml) in treated mice relative to control group at 10 minutes after dosing the treated mice. Concentrations of the exemplary compound tested in the mice are provided in the righthand column.
row,Compound,Increase in Insulin [ng/mL]
1,CCCc1c(C(=O)NC(C)c2ccncc2)cnn1-c1ncc(C)c(-c2cccs2)n1 (stereo not drawn) [1-[5-Methyl-4-(2-thienyl)pyrimidin-2-yl]-5-propyl-N-(1-pyridin-4-ylethyl)-1H-pyrazole-4-carboxamide],3.9
2,CCCCc1c(C(=O)NCc2c(C)ncn2CC(=O)O)cnn1-c1ncc(C)c(-c2cccs2)n1 [(5-{[({5-Butyl-1-[5-methyl-4-(2-thienyl)pyrimidin-2-yl]-1H-pyrazol-4-yl}carbonyl)amino]methyl}-4-methyl-1H-imidazol-1-yl)acetic acid],3.9

# Test system: C57B6 mice
# Experiment: Glucose lowering effect after oral glucose challenge in C57B6 mice
# Assay type: in vivo
# Settings: male C57B6 mice, p.o. 30 minutes before oral glucose 3 g/kg; blood glucose before, 20 and 50 minutes after challenge; relative to control group
# Protocol: The following example describes the glucose lowering effect of compounds observed in vivo.
# Male C57B6 mice were placed into control and treatment groups having similar averages of body weights. Then, animals were dosed with vehicle (control group) or test article (5 ml/kg, p.o.). Thirty minutes after dosing, glucose (3 g/kg) was orally administered in each animal. Blood samples were collected just before, 20 minutes and 50 minutes after glucose challenge and glucose concentrations in the samples was assessed. The values in Table 2 represent the observed % AUC reduction of blood glucose in the treated animals relative to the control group.
row,Compound,% AUC reduction in glucose levels [%]
1,CCOCc1c(C(=O)NCc2cncn2C)cnn1-c1ncc(C)c(N2CCCCC2)n1 [5-(Ethoxymethyl)-N-((1-methyl-1H-imidazol-5-yl)methyl)-1-(5-methyl-4-(piperidin-1-yl)pyrimidin-2-yl)-1H-pyrazole-4-carboxamide],42
2,CCOCc1c(C(=O)NCc2cncn2C)cnn1-c1ncc(C)c(-c2cccs2)n1 [5-(Ethoxymethyl)-N-((1-methyl-1H-imidazol-5-yl)methyl)-1-(5-methyl-4-(thiophen-2-yl)pyrimidin-2-yl)-1H-pyrazole-4-carboxamide],16
3,CCOCc1c(C(=O)NCc2cncn2C)cnn1-c1ncc(C)c(-c2ccccc2)n1 [5-(Ethoxymethyl)-N-[(1-methyl-1H-imidazol-5-yl)methyl]-1-(5-methyl-4-phenylpyrimidin-2-yl)-1H-pyrazole-4-carboxamide],35
4,CCOCc1c(C(=O)NCc2cncn2C)cnn1-c1ncc(C)c(N2CCCC2)n1 [5-(Ethoxymethyl)-N-[(1-methyl-1H-imidazol-5-yl)methyl]-1-(5-methyl-4-pyrrolidin-1-ylpyrimidin-2-yl)-1H-pyrazole-4-carboxamide],18
5,"CCOCc1c(C(=O)NCc2cncn2C)cnn1-c1ncc(C)c(-c2nccs2)n1 [5-(Ethoxymethyl)-N-[(1-methyl-1H-imidazol-5-yl)methyl]-1-[5-methyl-4-(1,3-thiazol-2-yl)pyrimidin-2-yl]-1H-pyrazole-4-carboxamide]",41
6,"CCOCc1c(C(=O)NCc2cncn2C)cnn1-c1ncc(C)c(N2CC(F)(F)C(F)(F)C2)n1 [5-(Ethoxymethyl)-N-[(1-methyl-1H-imidazol-5-yl)methyl]-1-[5-methyl-4-(3,3,4,4-tetrafluoropyrrolidin-1-yl)pyrimidin-2-yl]-1H-pyrazole-4-carboxamide]",11
7,CCOCc1c(C(=O)NCc2cncn2C)cnn1-c1ncc(C)c(-c2ccsc2)n1 [5-(Ethoxymethyl)-N-[(1-methyl-1H-imidazol-5-yl)methyl]-1-[5-methyl-4-(3-thienyl)pyrimidin-2-yl]-1H-pyrazole-4-carboxamide],51
8,CCOCc1c(C(=O)NCc2c(CO)ncn2C)cnn1-c1ncc(C)c(-c2cccs2)n1 [5-(Ethoxymethyl)-N-{[4-(hydroxymethyl)-1-methyl-1H-imidazol-5-yl]methyl}-1-[5-methyl-4-(2-thienyl)pyrimidin-2-yl]-1H-pyrazole-4-carboxamide],35
9,"CCCCc1c(C(=O)NCc2cnc3ccccn23)cnn1-c1ncc(Cl)c(NC2CC2)n1 [5-Butyl-1-[5-chloro-4-(cyclopropylamino)pyrimidin-2-yl]-N-(imidazo[1,2-a]pyridin-3-ylmethyl)-1H-pyrazole-4-carboxamide]",32
10,CCCCc1c(C(=O)NCc2cncn2C)cnn1-c1ncc(Cl)c(NC2CC2)n1 [5-Butyl-1-[5-chloro-4-(cyclopropylamino)pyrimidin-2-yl]-N-[(1-methyl-1H-imidazol-5-yl)methyl]-1H-pyrazole-4-carboxamide],7
11,"CCCCc1c(C(=O)NCc2cnc3ccccn23)cnn1-c1ncc(C)c(N2CCCC2)n1 [5-Butyl-N-(imidazo[1,2-a]pyridin-3-ylmethyl)-1-(5-methyl-4-pyrrolidin-1-ylpyrimidin-2-yl)-1H-pyrazole-4-carboxamide]",34
12,"CCCCc1c(C(=O)NCc2c(C)nc3ccccn23)cnn1-c1ncc(C)c(-c2cccs2)n1 [5-Butyl-N-[(2-methylimidazo[1,2-a]pyridin-3-yl)methyl]-1-[5-methyl-4-(2-thienyl)pyrimidin-2-yl]-1H-pyrazole-4-carboxamide]",35
13,CCCCc1c(C(=O)NCc2c(C)ncn2CC(=O)O)cnn1-c1ncc(C)c(-c2cccs2)n1 [(5-{[({5-Butyl-1-[5-methyl-4-(2-thienyl)pyrimidin-2-yl]-1H-pyrazol-4-yl}carbonyl)amino]methyl}-4-methyl-1H-imidazol-1-yl)acetic acid],19
14,"CCCCc1c(C(=O)NCc2cnc3cc(C(=O)OC)ccn23)cnn1-c1ncc(Cl)c(NC2CC2)n1 [Methyl 3-{[({5-butyl-1-[5-chloro-4-(cyclopropylamino)pyrimidin-2-yl]-1H-pyrazol-4-yl}carbonyl)amino]methyl}imidazo[1,2-a]pyridine-7-carboxylate]",24
15,CCCc1c(C(=O)NCc2c(CO)ncn2C)cnn1-c1ncc(C)c(N2CCOCC2)n1 [N-{[4-(Hydroxymethyl)-1-methyl-1H-imidazol-5-yl]methyl}-1-(5-methyl-4-morpholin-4-ylpyrimidin-2-yl)-5-propyl-1H-pyrazole-4-carboxamide],6
16,CCCc1c(C(=O)NCc2c(CO)ncn2C)cnn1-c1ncc(C)c(-c2cccs2)n1 [N-{[4-(Hydroxymethyl)-1-methyl-1H-imidazol-5-yl]methyl}-1-[5-methyl-4-(2-thienyl)pyrimidin-2-yl]-5-propyl-1H-pyrazole-4-carboxamide],35
17,COCc1c(C(=O)NCc2c(CO)ncn2C)cnn1-c1ncc(C)c(N2CCCCC2)n1 [N-{[4-(Hydroxymethyl)-1-methyl-1H-imidazol-5-yl]methyl}-5-(methoxymethyl)-1-(5-methyl-4-piperidin-1-ylpyrimidin-2-yl)-1H-pyrazole-4-carboxamide],14
18,COCc1c(C(=O)NCc2c(CO)ncn2C)cnn1-c1ncc(C)c(-c2cccs2)n1 [N-{[4-(Hydroxymethyl)-1-methyl-1H-imidazol-5-yl]methyl}-5-(methoxymethyl)-1-[5-methyl-4-(2-thienyl)pyrimidin-2-yl]-1H-pyrazole-4-carboxamide],14

# Test system: glucose-challenged animal models of diabetes
# Experiment: Glucose-challenged animal models of diabetes, circulating insulin (FIG. 1)
# Assay type: in vivo
# Settings: glucose challenge, treated animals relative to control animals
# Protocol: The following example describes how compounds can be evaluated in vivo in glucose-challenged animal models.
# Art-recognized animal models of diabetes, such as type 2 diabetes, include diet-induced obese C57BL/6 (“B6”) mice and ob/ob mice. See, e.g., Breyer et al., J. Am. Soc. Nephrol. 16:27-45 (2005) and references cited therein.
# Rats (aged 5-20) weeks or mice (aged 6-20 weeks) are fasted overnight beginning at 4 pm. Between 9 and 10 am, glucose levels are determined with a glucometer using whole blood samples removed from the tail. The animals are placed into control and treatment groups having similar averages of glucose levels and body weights or similar averages of body weights (B6 mice). Animals are pre-dosed with vehicle (control group) or test article (5-10 mL/kg, p.o., s.c. or i.p.) and then challenged with glucose (1 g/kg, p.o. or i.p.). Blood samples are then collected from the tail and assay for glucose and insulin levels.
row,Compound,circulating insulin levels
1,CCCc1c(C(=O)NC(C)c2ccncc2)cnn1-c1ncc(C)c(-c2cccs2)n1 (stereo not drawn) [1-[5-Methyl-4-(2-thienyl)pyrimidin-2-yl]-5-propyl-N-(1-pyridin-4-ylethyl)-1H-pyrazole-4-carboxamide],increases in circulating insulin levels
